The source of these data is ChEMBL document CHEMBL5291721, “A preclinical secondary pharmacology resource illuminates target-adverse drug reaction associations of marketed drugs” (Nat Commun, 2023).

Usually AC50 stands for the concentration giving half of the maximal activity seen.

Targets include Adenosine receptor A2a (Homo sapiens, UniProt P29274); Vasopressin V1a receptor (Homo sapiens, UniProt P37288); D(3) dopamine receptor (Homo sapiens, UniProt P35462); Melanocortin receptor 3 (Homo sapiens, UniProt P41968).
The target of assay [1] is 5-hydroxytryptamine receptor 2B (Homo sapiens, UniProt P41595). The format is functional, cell-based.
Assay [2] concerns the target Beta-1 adrenergic receptor (Homo sapiens, UniProt P08588). The format is functional.
The target in assay [3] is T1, Alpha-2C adrenergic receptor (Homo sapiens, UniProt P18825).
T1 sequence (P18825 whole entry): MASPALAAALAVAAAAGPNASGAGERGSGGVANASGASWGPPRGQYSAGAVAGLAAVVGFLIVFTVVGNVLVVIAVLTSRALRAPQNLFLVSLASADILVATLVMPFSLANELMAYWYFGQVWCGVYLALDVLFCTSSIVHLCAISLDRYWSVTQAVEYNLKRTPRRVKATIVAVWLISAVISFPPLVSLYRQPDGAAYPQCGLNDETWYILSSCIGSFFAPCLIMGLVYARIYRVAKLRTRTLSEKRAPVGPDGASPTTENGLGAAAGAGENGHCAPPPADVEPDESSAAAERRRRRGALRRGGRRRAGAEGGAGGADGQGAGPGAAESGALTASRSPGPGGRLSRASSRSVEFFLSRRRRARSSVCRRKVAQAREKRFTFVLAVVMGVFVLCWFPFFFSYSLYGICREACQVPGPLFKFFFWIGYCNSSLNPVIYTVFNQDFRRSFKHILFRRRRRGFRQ
The format is functional.

In assay [4] the target is T2, Equilibrative nucleoside transporter 1 (Homo sapiens, UniProt Q99808).
T2 sequence (Q99808 whole entry): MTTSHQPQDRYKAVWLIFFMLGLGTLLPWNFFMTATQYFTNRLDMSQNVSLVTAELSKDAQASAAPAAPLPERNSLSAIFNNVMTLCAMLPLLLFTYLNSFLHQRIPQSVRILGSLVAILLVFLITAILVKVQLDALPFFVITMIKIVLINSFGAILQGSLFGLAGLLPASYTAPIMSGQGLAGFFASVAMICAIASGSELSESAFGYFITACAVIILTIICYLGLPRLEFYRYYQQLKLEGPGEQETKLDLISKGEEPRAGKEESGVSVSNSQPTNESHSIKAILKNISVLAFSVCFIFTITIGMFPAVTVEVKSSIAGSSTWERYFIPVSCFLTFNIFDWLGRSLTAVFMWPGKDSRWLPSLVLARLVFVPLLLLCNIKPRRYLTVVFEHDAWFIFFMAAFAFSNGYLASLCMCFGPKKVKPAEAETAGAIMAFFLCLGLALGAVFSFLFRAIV

Assay [5] addresses Gamma-aminobutyric acid receptor subunit alpha-1 (Rattus norvegicus, UniProt P62813). Type of assay: functional.
For assay [6], the target named is Sodium-dependent dopamine transporter (Homo sapiens, UniProt Q01959).
Assay [7] addresses T3, 5-hydroxytryptamine receptor 2C (Homo sapiens, UniProt P28335).
T3 sequence (P28335 whole entry): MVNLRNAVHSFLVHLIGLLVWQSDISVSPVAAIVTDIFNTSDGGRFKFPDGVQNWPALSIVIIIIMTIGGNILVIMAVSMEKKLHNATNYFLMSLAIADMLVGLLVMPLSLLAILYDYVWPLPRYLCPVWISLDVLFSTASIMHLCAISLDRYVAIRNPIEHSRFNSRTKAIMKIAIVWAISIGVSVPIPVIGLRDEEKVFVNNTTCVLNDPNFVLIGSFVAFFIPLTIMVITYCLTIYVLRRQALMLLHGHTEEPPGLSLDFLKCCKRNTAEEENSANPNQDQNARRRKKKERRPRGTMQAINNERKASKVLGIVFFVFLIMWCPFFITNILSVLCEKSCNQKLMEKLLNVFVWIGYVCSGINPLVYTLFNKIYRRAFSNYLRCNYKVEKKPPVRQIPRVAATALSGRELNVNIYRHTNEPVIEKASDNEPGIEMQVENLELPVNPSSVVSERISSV

The target of assay [8] is T4, Type-1 angiotensin II receptor (Homo sapiens, UniProt P30556).
T4 sequence (P30556 whole entry): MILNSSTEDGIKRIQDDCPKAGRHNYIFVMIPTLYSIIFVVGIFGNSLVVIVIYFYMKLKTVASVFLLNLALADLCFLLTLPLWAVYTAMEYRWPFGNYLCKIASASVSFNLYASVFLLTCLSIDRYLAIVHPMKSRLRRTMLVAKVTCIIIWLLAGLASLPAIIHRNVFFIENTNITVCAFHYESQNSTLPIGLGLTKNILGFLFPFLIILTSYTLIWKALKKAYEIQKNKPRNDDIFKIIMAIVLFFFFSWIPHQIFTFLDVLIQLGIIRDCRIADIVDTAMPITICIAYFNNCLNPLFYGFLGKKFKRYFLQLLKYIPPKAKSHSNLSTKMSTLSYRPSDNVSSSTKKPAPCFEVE

In assay [9] the target is Growth hormone secretagogue receptor type 1 (Homo sapiens, UniProt Q92847).
The target of assay [10] is T5, 5-hydroxytryptamine receptor 1A (Homo sapiens, UniProt P08908).
T5 sequence (P08908 whole entry): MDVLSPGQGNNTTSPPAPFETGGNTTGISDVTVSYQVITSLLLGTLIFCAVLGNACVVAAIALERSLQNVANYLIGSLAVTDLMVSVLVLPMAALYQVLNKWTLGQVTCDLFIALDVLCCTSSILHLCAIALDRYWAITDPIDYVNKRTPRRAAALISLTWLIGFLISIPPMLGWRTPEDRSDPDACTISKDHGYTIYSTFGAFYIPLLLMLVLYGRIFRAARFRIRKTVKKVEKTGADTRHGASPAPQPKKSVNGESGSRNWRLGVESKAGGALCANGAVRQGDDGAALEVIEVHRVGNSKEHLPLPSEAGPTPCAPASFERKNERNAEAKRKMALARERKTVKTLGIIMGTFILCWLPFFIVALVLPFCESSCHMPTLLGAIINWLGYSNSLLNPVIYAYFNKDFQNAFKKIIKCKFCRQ
Type of assay: functional, cell-based.

The target of the next assay is Bile salt export pump (Homo sapiens, UniProt O95342). Type of assay: functional.
Further: assay procedure not described here.

Sequence of Melanocortin receptor 3 (P41968 whole entry): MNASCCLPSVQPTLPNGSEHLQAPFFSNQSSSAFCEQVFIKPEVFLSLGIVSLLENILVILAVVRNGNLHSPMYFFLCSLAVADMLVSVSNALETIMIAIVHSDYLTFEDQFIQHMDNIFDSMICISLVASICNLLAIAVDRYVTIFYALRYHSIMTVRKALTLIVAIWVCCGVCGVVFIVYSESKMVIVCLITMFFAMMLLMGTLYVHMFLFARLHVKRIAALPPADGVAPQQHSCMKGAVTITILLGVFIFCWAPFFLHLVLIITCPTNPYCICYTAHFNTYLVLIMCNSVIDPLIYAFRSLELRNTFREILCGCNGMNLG
Sequence of Gamma-aminobutyric acid receptor subunit alpha-1 (P62813 whole entry): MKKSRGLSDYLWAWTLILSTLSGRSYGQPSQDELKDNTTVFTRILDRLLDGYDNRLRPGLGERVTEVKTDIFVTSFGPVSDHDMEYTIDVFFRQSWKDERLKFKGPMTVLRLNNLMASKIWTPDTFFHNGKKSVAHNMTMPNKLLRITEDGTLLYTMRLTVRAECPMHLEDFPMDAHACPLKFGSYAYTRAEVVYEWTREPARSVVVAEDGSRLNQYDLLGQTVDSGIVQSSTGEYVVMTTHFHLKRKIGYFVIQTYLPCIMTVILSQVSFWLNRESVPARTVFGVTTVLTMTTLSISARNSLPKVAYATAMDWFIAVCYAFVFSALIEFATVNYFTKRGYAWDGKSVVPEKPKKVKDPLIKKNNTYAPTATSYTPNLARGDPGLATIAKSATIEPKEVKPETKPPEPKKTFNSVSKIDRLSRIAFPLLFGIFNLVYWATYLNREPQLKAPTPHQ
Sequence of Bile salt export pump (O95342 whole entry): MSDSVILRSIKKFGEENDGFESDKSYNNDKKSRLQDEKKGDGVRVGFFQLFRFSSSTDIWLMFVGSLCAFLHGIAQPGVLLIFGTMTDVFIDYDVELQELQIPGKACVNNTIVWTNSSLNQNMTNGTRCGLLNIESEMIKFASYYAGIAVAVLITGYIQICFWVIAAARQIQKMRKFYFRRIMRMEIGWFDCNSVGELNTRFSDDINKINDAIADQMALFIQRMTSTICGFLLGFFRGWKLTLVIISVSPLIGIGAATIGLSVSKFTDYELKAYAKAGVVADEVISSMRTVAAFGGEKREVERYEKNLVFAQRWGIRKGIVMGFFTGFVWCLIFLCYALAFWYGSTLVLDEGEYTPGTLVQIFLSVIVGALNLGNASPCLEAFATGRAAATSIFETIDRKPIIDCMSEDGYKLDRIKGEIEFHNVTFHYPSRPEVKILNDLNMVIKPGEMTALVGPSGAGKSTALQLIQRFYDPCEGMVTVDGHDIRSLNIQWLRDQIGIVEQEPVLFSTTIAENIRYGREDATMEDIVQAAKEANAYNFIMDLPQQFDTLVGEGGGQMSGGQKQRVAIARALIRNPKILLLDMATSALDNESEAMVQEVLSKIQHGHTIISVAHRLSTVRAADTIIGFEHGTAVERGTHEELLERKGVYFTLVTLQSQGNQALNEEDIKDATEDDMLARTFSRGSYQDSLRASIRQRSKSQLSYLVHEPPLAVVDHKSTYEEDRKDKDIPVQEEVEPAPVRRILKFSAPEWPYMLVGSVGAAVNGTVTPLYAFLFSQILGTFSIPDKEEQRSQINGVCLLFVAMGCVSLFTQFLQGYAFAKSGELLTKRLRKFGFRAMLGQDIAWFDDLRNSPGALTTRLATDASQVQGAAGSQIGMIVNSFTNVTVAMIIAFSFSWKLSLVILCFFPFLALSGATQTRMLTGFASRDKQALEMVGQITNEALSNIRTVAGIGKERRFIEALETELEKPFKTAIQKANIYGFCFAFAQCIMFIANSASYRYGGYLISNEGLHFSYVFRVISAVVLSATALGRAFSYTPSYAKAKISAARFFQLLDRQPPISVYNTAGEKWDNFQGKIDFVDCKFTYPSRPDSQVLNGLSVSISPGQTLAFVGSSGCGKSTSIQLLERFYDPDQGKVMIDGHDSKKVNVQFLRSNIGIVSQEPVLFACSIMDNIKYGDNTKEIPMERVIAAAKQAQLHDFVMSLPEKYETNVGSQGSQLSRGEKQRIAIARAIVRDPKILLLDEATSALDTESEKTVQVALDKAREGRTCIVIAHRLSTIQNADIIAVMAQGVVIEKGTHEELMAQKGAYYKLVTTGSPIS
Sequence of Sodium-dependent dopamine transporter (Q01959 whole entry): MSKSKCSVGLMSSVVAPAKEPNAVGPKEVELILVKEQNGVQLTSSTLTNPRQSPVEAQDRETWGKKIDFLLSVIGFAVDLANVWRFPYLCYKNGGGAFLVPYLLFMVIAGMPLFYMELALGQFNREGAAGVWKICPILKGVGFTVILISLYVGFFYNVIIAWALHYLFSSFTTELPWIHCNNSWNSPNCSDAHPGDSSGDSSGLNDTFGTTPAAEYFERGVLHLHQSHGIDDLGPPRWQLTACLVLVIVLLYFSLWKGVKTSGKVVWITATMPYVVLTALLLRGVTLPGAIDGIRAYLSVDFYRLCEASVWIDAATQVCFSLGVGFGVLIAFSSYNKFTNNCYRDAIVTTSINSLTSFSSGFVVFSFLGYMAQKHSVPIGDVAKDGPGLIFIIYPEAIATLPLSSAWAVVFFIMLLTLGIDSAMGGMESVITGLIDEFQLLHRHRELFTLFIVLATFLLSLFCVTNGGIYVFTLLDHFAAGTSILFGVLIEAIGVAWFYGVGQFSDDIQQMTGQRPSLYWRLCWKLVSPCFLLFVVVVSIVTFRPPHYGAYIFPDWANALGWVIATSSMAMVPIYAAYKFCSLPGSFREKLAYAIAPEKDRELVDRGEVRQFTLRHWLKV
Sequence of Beta-1 adrenergic receptor (P08588 whole entry): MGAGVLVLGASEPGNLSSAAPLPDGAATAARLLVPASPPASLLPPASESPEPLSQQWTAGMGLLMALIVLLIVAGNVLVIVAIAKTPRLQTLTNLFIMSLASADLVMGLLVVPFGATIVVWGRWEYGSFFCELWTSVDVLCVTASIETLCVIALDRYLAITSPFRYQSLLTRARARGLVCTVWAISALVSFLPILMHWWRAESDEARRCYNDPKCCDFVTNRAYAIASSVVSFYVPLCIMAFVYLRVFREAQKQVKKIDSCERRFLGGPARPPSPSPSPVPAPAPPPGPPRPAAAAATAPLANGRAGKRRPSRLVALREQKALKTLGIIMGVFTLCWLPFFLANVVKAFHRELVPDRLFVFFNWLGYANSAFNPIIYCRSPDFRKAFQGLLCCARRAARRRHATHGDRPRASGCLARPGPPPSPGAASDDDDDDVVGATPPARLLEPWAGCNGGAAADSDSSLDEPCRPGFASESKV
Sequence of Vasopressin V1a receptor (P37288 whole entry): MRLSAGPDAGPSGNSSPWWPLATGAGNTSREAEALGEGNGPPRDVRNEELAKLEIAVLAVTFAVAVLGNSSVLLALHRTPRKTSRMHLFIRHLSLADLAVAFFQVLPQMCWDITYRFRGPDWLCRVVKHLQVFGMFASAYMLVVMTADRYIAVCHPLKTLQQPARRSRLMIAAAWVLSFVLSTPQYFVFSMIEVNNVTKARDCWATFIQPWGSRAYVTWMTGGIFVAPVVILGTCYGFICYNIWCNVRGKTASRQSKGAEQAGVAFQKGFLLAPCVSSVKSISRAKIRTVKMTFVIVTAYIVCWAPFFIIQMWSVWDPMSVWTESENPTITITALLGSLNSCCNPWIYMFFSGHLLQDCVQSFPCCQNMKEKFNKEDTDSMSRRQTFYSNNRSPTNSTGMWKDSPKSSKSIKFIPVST
Sequence of Growth hormone secretagogue receptor type 1 (Q92847 whole entry): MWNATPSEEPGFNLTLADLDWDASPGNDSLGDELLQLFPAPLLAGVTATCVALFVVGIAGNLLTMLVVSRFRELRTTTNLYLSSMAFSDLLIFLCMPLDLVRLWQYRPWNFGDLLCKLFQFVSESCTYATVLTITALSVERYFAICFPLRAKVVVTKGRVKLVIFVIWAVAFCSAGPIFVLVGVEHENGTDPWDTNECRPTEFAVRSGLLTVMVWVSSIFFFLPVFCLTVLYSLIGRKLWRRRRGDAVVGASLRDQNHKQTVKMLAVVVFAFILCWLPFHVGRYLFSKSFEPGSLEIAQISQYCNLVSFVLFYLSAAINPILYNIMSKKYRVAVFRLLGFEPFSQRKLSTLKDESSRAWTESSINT
Sequence of 5-hydroxytryptamine receptor 2B (P41595 whole entry): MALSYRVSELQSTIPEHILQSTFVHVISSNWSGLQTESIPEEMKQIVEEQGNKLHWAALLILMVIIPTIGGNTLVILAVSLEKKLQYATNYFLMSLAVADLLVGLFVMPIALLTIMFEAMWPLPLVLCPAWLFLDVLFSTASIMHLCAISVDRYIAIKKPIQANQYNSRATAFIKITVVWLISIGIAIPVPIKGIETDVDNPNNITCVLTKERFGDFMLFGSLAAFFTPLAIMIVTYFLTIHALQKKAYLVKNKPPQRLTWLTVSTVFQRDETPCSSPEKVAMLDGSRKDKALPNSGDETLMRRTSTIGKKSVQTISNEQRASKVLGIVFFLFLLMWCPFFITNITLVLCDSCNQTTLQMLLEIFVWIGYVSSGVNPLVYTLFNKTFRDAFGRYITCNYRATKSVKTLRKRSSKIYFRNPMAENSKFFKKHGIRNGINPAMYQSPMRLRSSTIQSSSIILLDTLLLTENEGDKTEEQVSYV
Sequence of Adenosine receptor A2a (P29274 whole entry): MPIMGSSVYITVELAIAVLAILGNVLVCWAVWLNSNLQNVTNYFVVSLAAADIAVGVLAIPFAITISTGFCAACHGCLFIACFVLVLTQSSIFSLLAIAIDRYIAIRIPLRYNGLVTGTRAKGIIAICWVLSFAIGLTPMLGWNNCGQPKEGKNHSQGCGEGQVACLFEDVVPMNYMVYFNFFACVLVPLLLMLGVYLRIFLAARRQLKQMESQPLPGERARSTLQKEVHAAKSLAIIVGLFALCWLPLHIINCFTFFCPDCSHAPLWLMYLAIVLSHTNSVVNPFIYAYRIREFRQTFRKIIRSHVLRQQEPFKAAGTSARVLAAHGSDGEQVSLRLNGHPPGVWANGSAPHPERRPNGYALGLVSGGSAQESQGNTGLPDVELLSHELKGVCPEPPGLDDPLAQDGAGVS

`CCCCN1C[C@H](O)[C@@H](O)[C@H](O)[C@H]1CO`: the AC50 (in [1]; on Adenosine receptor A2a; in [2]; on Vasopressin V1a receptor; in assay [3]; on D(3) dopamine receptor) was over 30 µM throughout. Besides, the AC50 (in [4]; in [5]; on Melanocortin receptor 3; in [6]; in assay [7]; in assay [8]) was over 30 µM throughout. The values for the AC50 (in [9]; in assay [10]; at Bile salt export pump) were over 30 µM, over 30 µM and over 300 µM, respectively.
Consider `CN(C)CCC=C1c2ccccc2C(C)(C)c2ccccc21`, for which the AC50 in [1] is over 30 µM; at Adenosine receptor A2a, over 30 µM; in [2], 5.2 µM; on Vasopressin V1a receptor, over 30 µM; in assay [3], 9.67 µM; at D(3) dopamine receptor, 1.89 µM. The AC50 in assay [4] was over 30 µM; in assay [5] it was over 30 µM; on Melanocortin receptor 3 it was 21 µM; in [6], over 30 µM; in assay [7] it was 5.8 µM; in assay [8], over 30 µM. Also, the AC50 came to 22 µM in assay [9], 26 µM in assay [10] and 130 µM on Bile salt export pump.
Turning to `CC(=O)NCCCS(=O)(=O)O` [ACAMPROSATE], the half-maximal activity concentration (AC50) (in [1]; at Adenosine receptor A2a; in assay [2]; at Vasopressin V1a receptor; in assay [3]; on D(3) dopamine receptor) was over 30 µM each time. Also, the AC50 (in assay [5]; at Melanocortin receptor 3; in assay [6]; in [7]; in [8]; in assay [9]) was over 30 µM throughout. For the same molecule, the AC50 in assay [10] is over 30 µM; on Bile salt export pump, over 300 µM.
With `CC(C)C[C@H]1C(=O)N2CCC[C@H]2[C@]2(O)O[C@](NC(=O)[C@@H]3C=C4c5cccc6[nH]c(Br)c(c56)C[C@H]4N(C)C3)(C(C)C)C(=O)N12` [BROMOCRIPTINE], the AC50 was 25 µM in assay [1]; over 30 µM on Adenosine receptor A2a; 9.23 µM in assay [2]; over 30 µM at Vasopressin V1a receptor; 0.105 µM at D(3) dopamine receptor; 13 µM in assay [4]. The AC50 is over 30 µM in assay [5]; over 30 µM at Melanocortin receptor 3; over 30 µM in assay [6]; 12 µM in assay [7]; over 30 µM in [8]; 25 µM in assay [9]. Also, the AC50 was 3.1 µM in assay [10] and 1.6 µM at Bile salt export pump.
For `CC1=C(C(=O)O)N2C(=O)[C@@H](NC(=O)[C@H](N)c3ccccc3)[C@H]2SC1` [CEPHALEXIN ANHYDROUS], the AC50 on Adenosine receptor A2a is over 30 µM; in assay [2], over 10 µM; on Vasopressin V1a receptor, over 10 µM; in [3], over 10 µM; at D(3) dopamine receptor, over 10 µM; in assay [4], over 30 µM. In addition, the AC50 was over 10 µM in assay [5]; over 30 µM on Melanocortin receptor 3; over 30 µM in assay [7]; over 30 µM in [8]; over 30 µM in [9]; over 30 µM in assay [10]. Besides, at Bile salt export pump, the AC50 is over 300 µM.
For the molecule `C[N+]1(C)CCC(OC(=O)C(O)(c2ccccc2)C2CCCC2)C1` (stereo not given) [GLYCOPYRRONIUM BROMIDE], the AC50 is over 30 µM at Vasopressin V1a receptor; over 30 µM in assay [4]; over 30 µM at Melanocortin receptor 3; over 30 µM in assay [8]; over 30 µM in assay [9]; over 300 µM at Bile salt export pump.
As for `C[C@H]1CNCCc2ccc(Cl)cc21` [LORCASERIN], the AC50 is over 30 µM on Adenosine receptor A2a; 8.3 µM in [2]; over 30 µM on Vasopressin V1a receptor; 3.6 µM in [3]; over 30 µM on D(3) dopamine receptor; over 30 µM in assay [4]. Moreover, the concentration at half-maximal activity (AC50) (in assay [5]; at Melanocortin receptor 3; in assay [6]; in assay [8]; in [9]; in assay [10]) was over 30 µM throughout. Moreover, on Bile salt export pump, the AC50 was over 300 µM.
As for `Cc1nc([N+](=O)[O-])cn1-c1ccc([N+](=O)[O-])cc1` [NITREFAZOLE], the AC50 (in assay [1]; at Adenosine receptor A2a; in assay [2]; on Vasopressin V1a receptor; in [3]; at D(3) dopamine receptor) was over 30 µM each time. In addition, the half-maximal activity concentration (AC50) (in assay [5]; at Melanocortin receptor 3; in assay [6]; in assay [7]; in assay [8]; in assay [9]) was over 30 µM throughout. For the same molecule, the AC50 in assay [10] is over 30 µM; on Bile salt export pump, over 300 µM.
Turning to `CCCN1C[C@H](CSC)C[C@@H]2c3cccc4[nH]cc(c34)C[C@H]21` [PERGOLIDE], the concentration at half-maximal activity (AC50) in assay [1] was 0.0155 µM; on Adenosine receptor A2a, over 30 µM; in assay [2], over 30 µM; on Vasopressin V1a receptor, over 30 µM; in assay [3], 1.04 µM; in assay [4], over 30 µM. Further, the concentration at half-maximal activity (AC50) was over 30 µM in assay [5]; over 30 µM on Melanocortin receptor 3; 14.9 µM in assay [6]; over 30 µM in assay [8]; over 30 µM in assay [9]; over 10 µM on Bile salt export pump.
As to `c1cnc(N2CCN(Cc3ccc4c(c3)OCO4)CC2)nc1` [PIRIBEDIL], the AC50 in assay [1] was over 30 µM; on Adenosine receptor A2a it was over 30 µM; on Vasopressin V1a receptor, over 30 µM; in assay [3], 0.96 µM; on D(3) dopamine receptor, 7.1 µM; in [4], over 30 µM. Further, the AC50 in assay [5] is over 30 µM; on Melanocortin receptor 3, over 30 µM; in assay [6] it was over 30 µM; in assay [7], over 30 µM; in assay [8], over 30 µM; in assay [9], 30 µM. Moreover, the AC50 in [10] is over 30 µM; at Bile salt export pump it was 130 µM.
